In ChEMBL document CHEMBL2010748, “Structure-Activity Relationship Studies of HIV-1 Integrase Oligonucleotide Inhibitors” (ACS Med Chem Lett, 2011) one finds IC50 data, which are given here for ten molecules.

The structures appear in SMILES notation.

Human immunodeficiency virus type 1 integrase, sequence (Q7ZJM1 whole entry): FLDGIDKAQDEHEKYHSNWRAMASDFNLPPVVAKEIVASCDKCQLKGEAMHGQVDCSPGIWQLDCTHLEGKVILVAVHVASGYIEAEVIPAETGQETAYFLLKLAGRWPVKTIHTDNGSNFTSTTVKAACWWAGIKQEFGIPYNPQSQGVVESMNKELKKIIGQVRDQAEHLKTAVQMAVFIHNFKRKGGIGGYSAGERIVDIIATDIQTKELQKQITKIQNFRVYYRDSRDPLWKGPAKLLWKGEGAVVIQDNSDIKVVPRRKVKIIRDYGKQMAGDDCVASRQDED

The test addresses Human immunodeficiency virus type 1 integrase (Human immunodeficiency virus 1, UniProt Q7ZJM1). Put plainly: Inhibition of Human immunodeficiency virus 1 integrase 3'-processing activity expressed in Escherichia coli using 21-mer DNA and Mg2+ after 2 hrs by polyacrylamide gel electrophoresis.
`Cc1cn([C@H]2C[C@H](O)[C@@H](COP(=O)(O)O[C@H]3CCO[C@@H]3COP(=O)(O)O[C@H]3CCO[C@@H]3COP(=O)(O)O[C@H]3CCO[C@@H]3COP(=O)(O)O[C@H]3CCO[C@@H]3COP(=O)(O)O[C@H]3CCO[C@@H]3COP(=O)(O)O[C@H]3CCO[C@@H]3COP(=O)(O)O[C@H]3CCO[C@@H]3COP(=O)(O)O[C@H]3CCO[C@@H]3COP(=O)(O)O[C@H]3CCO[C@@H]3COP(=O)(O)O[C@H]3CCO[C@@H]3COP(=O)(O)OCCCCCCNC(=O)c3cc(Cl)c(C(=O)O)c(-c4c5cc(Cl)c(=O)c(Cl)c-5oc5c(Cl)c(O)c(Cl)cc45)c3Cl)O2)c(=O)[nH]c1=O` registered an IC50 of 1200 nM.

`Cc1cn([C@H]2C[C@H](OP(=O)(O)OC[C@H]3O[C@@H](n4cc(C)c(=O)[nH]c4=O)C[C@@H]3OP(=O)(S)OC[C@H]3O[C@@H](n4cc(C)c(=O)[nH]c4=O)C[C@@H]3OP(=O)(O)OC[C@H]3O[C@@H](n4cnc5c(=O)[nH]c(N)nc54)C[C@@H]3OP(=O)(O)OC[C@H]3O[C@@H](n4cc(C)c(=O)[nH]c4=O)C[C@@H]3OP(=O)(S)OC[C@H]3O[C@@H](n4cnc5c(=O)[nH]c(N)nc54)C[C@@H]3OP(=O)(O)OC[C@H]3O[C@@H](n4cc(C)c(=O)[nH]c4=O)C[C@@H]3OP(=O)(O)OCCCCCCNC(=S)Nc3ccc(-c4c5cc(Br)c(=O)c(Br)c-5oc5c(Br)c(O)c(Br)cc45)c(C(=O)O)c3)[C@@H](COP(=O)(O)O[C@H]3C[C@H](n4cc(C)c(=O)[nH]c4=O)O[C@@H]3COP(=O)(S)O[C@H]3C[C@H](n4cc(C)c(=O)[nH]c4=O)O[C@@H]3COP(=O)(O)O[C@H]3C[C@H](n4cnc5c(=O)[nH]c(N)nc54)O[C@@H]3COP(=O)(O)O[C@H]3C[C@H](n4cnc5c(=O)[nH]c(N)nc54)O[C@@H]3CO)O2)c(=O)[nH]c1=O` (stereo not given in full) showed an IC50 of 24 nM.

`CCCCCCCC/C=C\CCCCCCCC(=O)NCCCOCC(O)COP(=O)(S)O[C@H]1[C@@H](OC)[C@H](n2ccc(=O)[nH]c2=O)O[C@@H]1COP(=O)(S)O[C@H]1[C@@H](OC)[C@H](n2cnc3c(=O)[nH]c(N)nc32)O[C@@H]1COP(=O)(S)O[C@H]1[C@@H](OC)[C@H](n2ccc(=O)[nH]c2=O)O[C@@H]1COP(=O)(S)O[C@H]1[C@@H](OC)[C@H](n2cnc3c(=O)[nH]c(N)nc32)O[C@@H]1COP(=O)(S)O[C@H]1[C@@H](OC)[C@H](n2ccc(=O)[nH]c2=O)O[C@@H]1COP(=O)(S)O[C@H]1[C@@H](OC)[C@H](n2ccc(=O)[nH]c2=O)O[C@@H]1COP(=O)(S)O[C@H]1[C@@H](OC)[C@H](n2ccc(=O)[nH]c2=O)O[C@@H]1COP(=O)(S)O[C@H]1[C@@H](OC)[C@H](n2ccc(=O)[nH]c2=O)O[C@@H]1COP(=O)(S)O[C@H]1[C@@H](OC)[C@H](n2ccc(=O)[nH]c2=O)O[C@@H]1COP(=O)(S)O[C@H]1[C@@H](OC)[C@H](n2cnc3c(=O)[nH]c(N)nc32)O[C@@H]1COP(=O)(S)O[C@H]1[C@@H](OC)[C@H](n2cnc3c(=O)[nH]c(N)nc32)O[C@@H]1COP(=O)(S)OCCCCCCNC(=O)c1cc(Cl)c(C(=O)O)c(-c2c3cc(Cl)c(=O)c(Cl)c-3oc3c(Cl)c(O)c(Cl)cc23)c1Cl` (stereo not given in full) gave an IC50 of 20 nM.

Take `Cc1cn([C@H]2C[C@H](OP(=O)(O)OC[C@H]3O[C@@H](n4cnc5c(=O)[nH]c(N)nc54)C[C@@H]3OP(=O)(O)OC[C@H]3O[C@@H](n4cc(C)c(=O)[nH]c4=O)C[C@@H]3OP(=O)(O)OC[C@H]3O[C@@H](n4cnc5c(=O)[nH]c(N)nc54)C[C@@H]3OP(=O)(O)OC[C@H]3O[C@@H](n4cc(C)c(=O)[nH]c4=O)C[C@@H]3O)[C@@H](COP(=O)(O)O[C@H]3CCO[C@@H]3COP(=O)(O)O[C@H]3CCO[C@@H]3COP(=O)(O)O[C@H]3CCO[C@@H]3COP(=O)(O)O[C@H]3CCO[C@@H]3COP(=O)(O)O[C@H]3CCO[C@@H]3COP(=O)(O)O[C@H]3CCO[C@@H]3COP(=O)(O)OCCCCCCNC(=O)c3cc(Cl)c(C(=O)O)c(-c4c5cc(Cl)c(=O)c(Cl)c-5oc5c(Cl)c(O)c(Cl)cc45)c3Cl)O2)c(=O)[nH]c1=O`: the concentration for half-maximal inhibition (IC50) turned out to be 280 nM.

`CO[C@@H]1[C@H](OP(=O)(O)OC[C@H]2O[C@@H](n3ccc(=O)[nH]c3=O)[C@H](OC)[C@@H]2OP(=O)(O)OC[C@H]2O[C@@H](n3ccc(=O)[nH]c3=O)[C@H](OC)[C@@H]2OP(=O)(O)OC[C@H]2O[C@@H](n3cnc4c(=O)[nH]c(N)nc43)[C@H](OC)[C@@H]2OP(=O)(O)OC[C@H]2O[C@@H](n3ccc(=O)[nH]c3=O)[C@H](OC)[C@@H]2OP(=O)(O)OC[C@H]2O[C@@H](n3cnc4c(=O)[nH]c(N)nc43)[C@H](OC)[C@@H]2OP(=O)(O)OC[C@H]2O[C@@H](n3ccc(=O)[nH]c3=O)[C@H](OC)[C@@H]2OP(=O)(O)OCCCCCCNC(=S)Nc2ccc(-c3c4cc(Br)c(=O)c(Br)c-4oc4c(Br)c(O)c(Br)cc34)c(C(=O)O)c2)[C@@H](COP(=O)(O)O[C@H]2[C@@H](OC)[C@H](n3ccc(=O)[nH]c3=O)O[C@@H]2COP(=O)(O)O[C@H]2[C@@H](OC)[C@H](n3ccc(=O)[nH]c3=O)O[C@@H]2COP(=O)(O)O[C@H]2[C@@H](OC)[C@H](n3cnc4c(=O)[nH]c(N)nc43)O[C@@H]2COP(=O)(O)O[C@H]2[C@@H](OC)[C@H](n3cnc4c(=O)[nH]c(N)nc43)O[C@@H]2CO)O[C@H]1n1ccc(=O)[nH]c1=O` yielded an IC50 of 48 nM.

Turning to `Cc1cn([C@H]2C[C@H](OP(=O)(O)OC[C@H]3O[C@@H](n4cnc5c(=O)[nH]c(N)nc54)C[C@@H]3OP(=O)(O)OC[C@H]3O[C@@H](n4cc(C)c(=O)[nH]c4=O)C[C@@H]3OP(=O)(O)OC[C@H]3O[C@@H](n4cnc5c(=O)[nH]c(N)nc54)C[C@@H]3OP(=O)(O)OC[C@H]3O[C@@H](n4cc(C)c(=O)[nH]c4=O)C[C@@H]3O)[C@@H](COP(=O)(O)OCCCOP(=O)(O)OCCCOP(=O)(O)OCCCOP(=O)(O)OCCCOP(=O)(O)OCCCOP(=O)(O)OCCCOP(=O)(O)OCCCCCCNC(=O)c3cc(Cl)c(C(=O)O)c(-c4c5cc(Cl)c(=O)c(Cl)c-5oc5c(Cl)c(O)c(Cl)cc45)c3Cl)O2)c(=O)[nH]c1=O`, the half-inhibitory concentration (IC50) came out at 250 nM.

On to `Cc1cn([C@H]2C[C@H](OP(=O)(O)OC[C@H]3O[C@@H](n4cc(C)c(=O)[nH]c4=O)C[C@@H]3OP(=O)(O)OC[C@H]3O[C@@H](n4cc(C)c(=O)[nH]c4=O)C[C@@H]3OP(=O)(O)OC[C@H]3O[C@@H](n4cnc5c(=O)[nH]c(N)nc54)C[C@@H]3OP(=O)(O)OC[C@H]3O[C@@H](n4cc(C)c(=O)[nH]c4=O)C[C@@H]3OP(=O)(O)OC[C@H]3O[C@@H](n4cnc5c(=O)[nH]c(N)nc54)C[C@@H]3OP(=O)(O)OC[C@H]3O[C@@H](n4cc(C)c(=O)[nH]c4=O)C[C@@H]3O)[C@@H](COP(=O)(O)O[C@H]3C[C@H](n4cc(C)c(=O)[nH]c4=O)O[C@@H]3COP(=O)(O)O[C@H]3C[C@H](n4cc(C)c(=O)[nH]c4=O)O[C@@H]3COP(=O)(O)O[C@H]3C[C@H](n4cnc5c(=O)[nH]c(N)nc54)O[C@@H]3COP(=O)(O)O[C@H]3C[C@H](n4cnc5c(=O)[nH]c(N)nc54)O[C@@H]3COP(=O)(O)OCCCCCCNC(=O)c3ccc(C(=O)O)c(-c4c5ccc(=O)cc-5oc5cc(O)ccc45)c3)O2)c(=O)[nH]c1=O`, for which the midpoint of inhibition, the IC50, lay at 310 nM.

The molecule `Cc1cn([C@H]2C[C@H](OP(=O)(O)OC[C@H]3O[C@@H](n4cc(C)c(=O)[nH]c4=O)C[C@@H]3OP(=O)(O)OC[C@H]3O[C@@H](n4cc(C)c(=O)[nH]c4=O)C[C@@H]3OP(=O)(O)OC[C@H]3O[C@@H](n4cnc5c(=O)[nH]c(N)nc54)C[C@@H]3OP(=O)(O)OC[C@H]3O[C@@H](n4cc(C)c(=O)[nH]c4=O)C[C@@H]3OP(=O)(O)OC[C@H]3O[C@@H](n4cnc5c(=O)[nH]c(N)nc54)C[C@@H]3OP(=O)(O)OC[C@H]3O[C@@H](n4cc(C)c(=O)[nH]c4=O)C[C@@H]3O)[C@@H](COP(=O)(O)O[C@H]3C[C@H](n4cc(C)c(=O)[nH]c4=O)O[C@@H]3COP(=O)(O)O[C@H]3C[C@H](n4cc(C)c(=O)[nH]c4=O)O[C@@H]3COP(=O)(O)O[C@H]3C[C@H](n4cnc5c(=O)[nH]c(N)nc54)O[C@@H]3COP(=O)(O)O[C@H]3C[C@H](n4cnc5c(=O)[nH]c(N)nc54)O[C@@H]3COP(=O)(O)OCCCCCCNC(=O)c3cc(Cl)c(C(=O)O)c(-c4c5cc(Cl)c(=O)cc-5oc5cc(O)c(Cl)cc45)c3Cl)O2)c(=O)[nH]c1=O` displayed an IC50 of 290 nM.

With `Cc1cn([C@H]2C[C@H](OP(=O)(O)OC[C@H]3O[C@@H](n4cc(C)c(=O)[nH]c4=O)C[C@@H]3OP(=O)(O)OC[C@H]3O[C@@H](n4cc(C)c(=O)[nH]c4=O)C[C@@H]3OP(=O)(O)OC[C@H]3O[C@@H](n4cnc5c(=O)[nH]c(N)nc54)C[C@@H]3OP(=O)(O)OC[C@H]3O[C@@H](n4cc(C)c(=O)[nH]c4=O)C[C@@H]3OP(=O)(O)OC[C@H]3O[C@@H](n4cnc5c(=O)[nH]c(N)nc54)C[C@@H]3OP(=O)(O)OC[C@H]3O[C@@H](n4cc(C)c(=O)[nH]c4=O)C[C@@H]3OP(=O)(O)OCCCCCCNC(=S)Nc3ccc(-c4c5ccc(=O)cc-5oc5cc(O)ccc45)c(C(=O)O)c3)[C@@H](COP(=O)(O)O[C@H]3C[C@H](n4cc(C)c(=O)[nH]c4=O)O[C@@H]3COP(=O)(O)O[C@H]3C[C@H](n4cc(C)c(=O)[nH]c4=O)O[C@@H]3COP(=O)(O)O[C@H]3C[C@H](n4cnc5c(=O)[nH]c(N)nc54)O[C@@H]3COP(=O)(O)O[C@H]3C[C@H](n4cnc5c(=O)[nH]c(N)nc54)O[C@@H]3CO)O2)c(=O)[nH]c1=O`, the IC50 was found to be 315 nM.

`CCCCCCCC/C=C\CCCCCCCC(=O)NCCCOCC(O)COP(=O)(O)O[C@H]1C[C@H](n2cc(C)c(=O)[nH]c2=O)O[C@@H]1COP(=O)(O)O[C@H]1C[C@H](n2cnc3c(=O)[nH]c(N)nc32)O[C@@H]1COP(=O)(O)O[C@H]1C[C@H](n2cc(C)c(=O)[nH]c2=O)O[C@@H]1COP(=O)(O)O[C@H]1C[C@H](n2cnc3c(=O)[nH]c(N)nc32)O[C@@H]1COP(=O)(O)O[C@H]1C[C@H](n2cc(C)c(=O)[nH]c2=O)O[C@@H]1COP(=O)(O)O[C@H]1C[C@H](n2cc(C)c(=O)[nH]c2=O)O[C@@H]1COP(=O)(O)O[C@H]1C[C@H](n2cc(C)c(=O)[nH]c2=O)O[C@@H]1COP(=O)(O)O[C@H]1C[C@H](n2cc(C)c(=O)[nH]c2=O)O[C@@H]1COP(=O)(O)O[C@H]1C[C@H](n2cc(C)c(=O)[nH]c2=O)O[C@@H]1COP(=O)(O)O[C@H]1C[C@H](n2cnc3c(=O)[nH]c(N)nc32)O[C@@H]1COP(=O)(O)O[C@H]1C[C@H](n2cnc3c(=O)[nH]c(N)nc32)O[C@@H]1COP(=O)(O)O[C@@H]1C[C@@H](CO)N(C(=O)CCCCCNC(=O)c2ccc(C(=O)O)c(-c3c4ccc(=O)cc-4oc4cc(O)ccc34)c2)C1` (stereo not given in full) registered an IC50 of 20 nM.

As usually defined, the IC50 is the concentration at which inhibition is half-maximal. Read a high IC50 as weaker potency.
